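In this assay, cells in 96-well plates receive the compound at five concentrations for 48 hours. Endpoints are linearly interpolated between the surrounding concentrations. At the GI50, growth is halved. TGI denotes the concentration required for complete inhibition of growth.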
Columns and labels:
Experiment in all cases: inhibition of tumour cell growth, NCI panel, 48 h
[1] = tested on: HL-60(TB) leukemia
[2] = tested on: NCI-H226 lung
[3] = tested on: NCI-H522 lung
[4] = tested on: OVCAR-3 ovarian
[5] = tested on: OVCAR-5 ovarian
[6] = tested on: RPMI-8226 leukemia
[7] = tested on: SNB-19 CNS
[8] = tested on: UACC-257 melanoma
[9] = tested on: HCT-15 colon
[10] = tested on: PC-3 prostate

SMILES	TGI [1] [µM]	TGI [2] [µM]	TGI [3] [µM]	TGI [4] [µM]	TGI [5] [µM]	TGI [6] [µM]	TGI [7] [µM]	TGI [8] [µM]	TGI [9] [µM]	GI50 [9] [µM]	GI50 [1] [µM]	GI50 [2] [µM]	GI50 [3] [µM]	GI50 [4] [µM]	GI50 [6] [µM]	GI50 [8] [µM]	TGI [10] [µM]	GI50 [5] [µM]	GI50 [10] [µM]	GI50 [7] [µM]
O=S(=O)(O)CS(=O)(=O)OCCCl	> 100	> 100	> 100	> 100	> 100	> 100	> 100	> 100												
Cn1ncc2cc3c(Nc4ccc(Cl)cc4)cccc3nc21	43.4			44		34.2	> 100	38.3	37.5											
COC(=O)Nc1nc2ccc(C(=O)c3ccc[nH]3)cc2[nH]1	0.927				> 100	> 100	> 54.7		> 100											
CCOC(=O)Cc1c(Cc2[nH]c(C(=O)OCc3ccccc3)c(CC(=O)OCC)c2CC(=O)OCC)[nH]c(C(=O)OCc2ccccc2)c1CC(=O)OCC	> 100		> 100	> 100		> 100	> 100		> 100											
O/N=C1/C(=C/c2ccc(F)cc2)CCCC1C(NO)c1ccc(F)cc1 (stereo not drawn)	49.1		42.5	72.8		49.8	> 100	64.5	> 100											
Cc1c(NC(=O)C(=O)N=NC(=O)c2ccncc2)c(O)c2ccccc2c1O	> 67.5	29.5	26.2	29.1	30.8	> 82	48.3	24.2	26.9											
N[C@H]1C2C3CC4C5CC(C42)C1(c1ccccc1)C53 (stereo partly drawn)	> 100	> 100	> 100	> 100	> 100	> 100	> 100		> 100											
O=[N+]([O-])c1ccc(-c2ccc(/C=N/n3c(-c4ccc(Cl)cc4)n[nH]c3=S)o2)cc1	> 100	> 58.5	> 100	> 66.8	> 100	> 31.6	> 72.7	> 100	> 100											
CCOC(=O)C1C=C2O[C@@H]3OC4(CCCCC4)O[C@@H]3C2[C@H]2C(=O)C=CC(=O)[C@@]12C(=O)OC (stereo partly drawn)	5.83	36.4	14.5	22.1	31.7	8.06	22.9	30.8	28.8											
O=C1C2=C(c3ccccc31)C(c1ccc(Cl)cc1)N1C(=O)CCSC1=N2 (stereo not drawn)	> 100	> 100	> 100	> 100	> 100	> 100	> 100	> 100	> 100											
CCOC(=O)/N=c1\ss/c(=N\C(=S)N(C)C)n1-c1ccccc1	> 100	> 100			> 100	> 100	> 100	> 100	> 100	> 100	> 100	> 100	0.401	23.2	> 100	> 100				
O=C1C2=C(c3ccccc31)C(c1cccc(Cl)c1)NC(=S)N2 (stereo not drawn)	> 100	> 100	> 100	> 100	> 100	> 100	> 100	> 100	> 100											
C/C(=N\NC(=S)Nc1ccc(C(=O)O)cc1)c1ccccn1	52.5	34.2		47.8	60.7	76.6		62.1	> 100											
COc1cc(O)c(C(=O)/C=C/c2ccccc2)c(OC)c1	5.17	12.8	12.1	44.7	> 100	10.3	14.6	23.6	16.7											
O=C1CC(=O)N(C2CCCCC2)C(=O)N1c1ccccc1S(=O)(=O)Oc1ccccc1	> 100			> 100	> 100	97.1	> 100	> 100	> 100								> 100			
Cc1cc(Br)cc(C)c1NC(=O)C(=O)CC(=O)c1sc(-n2nc(-c3ccccc3)cc2-c2ccccc2)nc1C	> 100	> 100	> 100	> 100	> 100	> 100	> 100	> 100	> 100											
NNC(=O)/C(=C/c1cccc([N+](=O)[O-])c1)NC(=O)c1ccccc1	> 100	> 100	> 100	> 100	> 100	> 100	> 100	> 100	> 100											
COc1c(OC(C)=O)ccc(/C=C2\N=C(C)OC2=O)c1[N+](=O)[O-]	> 100		> 100		> 100	> 100	> 100	> 100	> 100											
C1CCC([PH+](C2CCCCC2)C2CCCCC2[PH+](C2CCCCC2)C2CCCCC2)CC1.[Au].[CH-]1CCCCC1C1CCCC[N-]1 (stereo not drawn)	0.826			1.1	1.79	> 100		2.24	3.03	1.5	0.272			0.286	0.132	0.329	5.26	0.377	0.249	
CC(C)=CC(=O)CC(=O)C(=O)Nc1ccc(C)c(C)c1	> 100	> 100	> 100	> 100		> 100	> 100	> 100	> 100											
O=[N+]([O-])c1ccc(N/N=C\c2cc(Cl)ccc2O)nc1	8.02	> 100		12.1	> 100	> 100	> 100	7.38	> 100	0.735	0.65	20.9		0.42	0.987	1.82	55.6	8.88	0.747	3.41
ClC(=Nc1cccc2ccccc12)N(c1ccccc1)c1ccccc1			> 100	> 100	> 100	89.3	> 100	> 100	> 100								> 100			

SMILES	TGI [1] [µM]	TGI [2] [µM]	TGI [3] [µM]	TGI [4] [µM]	TGI [5] [µM]	TGI [6] [µM]	TGI [7] [µM]	TGI [8] [µM]	TGI [9] [µM]	GI50 [9] [µM]	GI50 [1] [µM]	GI50 [2] [µM]	GI50 [3] [µM]	GI50 [4] [µM]	GI50 [6] [µM]	GI50 [8] [µM]	TGI [10] [µM]	GI50 [5] [µM]	GI50 [10] [µM]	GI50 [7] [µM]
Cc1cc(C)nc(NS(=O)(=O)c2ccc(Nc3c4ccccc4nc4c(C(=O)Nc5ccc(S(N)(=O)=O)cc5)cccc34)cc2)n1			> 100	> 100	> 100	> 100	> 100	> 100	> 100											
COC1C=C(Nc2cccc(Cl)c2)C(=O)C1 (stereo not drawn)	> 100	> 100	> 100	> 100	> 100		> 100	> 100												
NC(N)=NS(=O)(=O)c1ccc(NC(=O)c2cccc3c(Nc4ccc(S(=O)(=O)N=C(N)N)cc4)c4ccc(Cl)cc4nc23)cc1			> 100	> 100	> 100	> 100	> 100	> 100	> 100											
CC(=O)O[C@H]1C(=O)[C@@]2(C)C([C@H](OC(=O)c3ccccc3)[C@]3(O)C[C@H](OC(=O)[C@H](O)[C@H](NC(=O)c4ccccc4)c4ccc(Cl)cc4)C(C)=C1C3(C)C)C1(OC(C)=O)CO[C@@H]1C[C@@H]2O (stereo partly drawn)		0.0497	0.00369	0.0124	0.0407	4.67	45.3		> 100	0.0583										
COc1ccc(-c2oc3cc(O)c(OC)c(O)c3c(=O)c2OC2OC(CO)C(O)C(O)C2O)cc1 (stereo not drawn)	> 100			> 100		> 100	> 100		> 100											
CC(=O)c1ccc(Nc2cc(-n3ccnc3)nc3ccccc23)cc1		92.1	> 100		> 100	9.84	> 100	> 100	> 100	34.2		24.4	87.9		3.24	33.4	> 100	> 100	20.5	> 100
CNC(=O)OCc1nc(SC(C)C)n(C)c1COC(=O)NC	> 100	> 100	> 100	> 100	> 100	> 100	> 100	> 100	> 100											
CC1=C(C(=O)Nc2ccc([N+](=O)[O-])cc2)C(c2ccco2)C(C(=O)Nc2ccc([N+](=O)[O-])cc2)=C(C)N1	26.5	> 100	64.3	88.3	> 100	25.5	> 100	98.5												
CC(=O)[CH-]C(=O)c1ccccc1.CC(=O)[CH-]C(=O)c1ccccc1.CCN(CC)CC[O-].CCN(CC)CC[O-].Cl.[Ti+4]	61.2	62.4	43	> 100	> 100	> 100	69.5	96.1	> 100	36.4	19.6	23	17.1	28.3	38.3	24.3		59.6		23.7
CCCCN(CCCC)C(=O)C(=O)CC(=O)c1ccc(Br)cc1	> 100	> 100	> 100	> 100	> 100	> 100	> 100	> 100	> 100											
COc1cc2c3c(n(C)c(=O)c2cc1OC)-c1cc2c(cc1/C3=C\CCCCN)OCO2	> 100		9.24	33.4	35.4	24.7	71.9	35.7	> 100	25.1	4.68		2.02	16.9	4.44	12.5	62.1	15.5	20	23.9
Cc1ccc2c(c1)NC(c1ccc(C(=O)O)cc1)c1cccn1-2 (stereo not drawn)		> 100		> 100	> 100	> 100	94.6	> 100	> 100								> 100			
CCOC(=O)c1cccc(=O)c(C(=O)OCC)c1	62.1	45.4		> 100	> 100	> 100		> 100	> 100											
O=C(Cc1ccccc1)NN1C(=O)C(Cl)C1c1cccc(O)c1 (stereo not drawn)	32.8	43.4	23.2	28.1	27.5	10.1	> 100	35	42.7											
COc1cc2c(cc1OC)C(=O)C(Br)CC2 (stereo not drawn)	28.9		3.17	6.88	18.2		21.3	11.3	7.37	2.33	4.91		1.57	2.5		3.02	23.1	5.47	8.8	8.96
CC(Cc1ccc(Cl)cc1Cl)NO (stereo not drawn)		> 100	> 100	> 100	> 100	> 100	> 100	> 100	> 100								> 100			
S=c1[nH]nc(COc2ccc(Cl)cc2)o1	> 100	> 100	> 100	> 100	> 100	> 100	> 100	> 100	98.6											
NC(N)=NC(CC(=O)O)c1ccccc1 (stereo not drawn)			> 100	> 100	> 100	> 100	> 100	> 100	> 100								> 100			
Cn1nc(-c2ccccc2NC(=O)C(F)(F)F)c(=O)n(C)c1=S		> 100	49.2	40.6	> 100		> 100													
CC1=C(C(=O)Nc2ccccc2)C(c2ccc3c(c2)OCO3)C(C(=O)Nc2ccccc2)=C(C)N1	42.4	> 100	73.3	> 100		79.4	> 100	> 100	> 100											
N#Cc1ccccc1NC(=O)C(=O)C(C(=O)c1ccccc1-c1ccccc1)C1OC(=O)c2ccccc21 (stereo not drawn)	50.2		21	32.7	33	79.7		53.8												
